Reference: ChEMBL document CHEMBL5257159, “Insights into targeting SARS-CoV-2: design, synthesis, in silico studies and antiviral evaluation of new dimethylxanthine derivatives” (RSC Med Chem, 2023)
Activity calls are given as the source filed them. The calls are words filed in the database; no cut-off is given here.

Columns and labels:
SARS-CoV-2 = experiment: Antiviral activity against SARS-CoV-2 NRC-03-nhCoV infected in african green monkey Vero E6 cells assessed as inhibition of virus-induced cytopathic effect measured after 72 hrs by crystal violet staining based assay; format: functional, organism-based; details: Severe acute respiratory syndrome coronavirus 2, NRC-03-nhCoV, Vero C1008, 72 h
[1] = Cytotoxicity against African green monkey Vero E6 cells measured after 72 hrs by MTT assay; format: toxicity, cell-based, Vero C1008; details: chlorocebus sabaeus
[2] = Selectivity index, ratio of CC50 for african green monkey Vero E6 cells to IC50 for antiviral activity against SARS-CoV-2 NRC-03-nhCoV infected in african green monkey Vero E6 cells; format: toxicity, Vero C1008; details: read-out: Ratio CC50/IC50
[3] = biological target: T1, Replicase polyprotein 1ab (Severe acute respiratory syndrome coronavirus 2, UniProt P0DTD1); experiment: Inhibition of MBP tagged recombinant SARS-CoV-2 main protease using DABCYL-KTSAVLeu(13C6,15N)-Q as substrate incubated for 2 to 3 hrs by mass spectrometric analysis
[4] = biological target: T1, Replicase polyprotein 1ab; experiment: Inhibition of SARS-CoV-2 RdRP using ATP substrate preincubated with compound for 30 mins followed by substrate addition and measured after 30 mins by Alphascreen microplate reader analysis
UO-31 = experiment: Growth inhibition of human UO-31 cells incubated for 48 hrs by SRB assay relative to control; format: functional
CCRF-CEM = experiment: Cytotoxicity against human CCRF-CEM cells assessed as inhibition of cell growth incubated for 48 hrs by SRB assay; format: functional, cell-based
HL-60(TB) = experiment: Cytotoxicity against human HL-60(TB) cells assessed as inhibition of cell growth incubated for 48 hrs by SRB assay; format: functional, cell-based
K562 = experiment: Cytotoxicity against human K562 cells assessed as inhibition of cell growth incubated for 48 hrs by SRB assay; format: functional, cell-based
MOLT-4 = experiment: Cytotoxicity against human MOLT-4 cells assessed as inhibition of cell growth incubated for 48 hrs by SRB assay; format: functional, cell-based
RPMI-8226 = experiment: Cytotoxicity against human […] cells assessed as inhibition of cell growth incubated for 48 hrs by SRB assay; format: functional, cell-based
SR = experiment: Cytotoxicity against human SR cells assessed as inhibition of cell growth incubated for 48 hrs by SRB assay; format: functional, cell-based
A549 = experiment: Cytotoxicity against human A549 cells assessed as inhibition of cell growth incubated for 48 hrs by SRB assay; format: functional, cell-based
EKVX = experiment: Cytotoxicity against human EKVX cells assessed as inhibition of cell growth incubated for 48 hrs by SRB assay; format: functional, cell-based
HOP-92 = experiment: Cytotoxicity against human HOP-92 cells assessed as inhibition of cell growth incubated for 48 hrs by SRB assay; format: functional, cell-based
NCI-H226 = experiment: Cytotoxicity against human NCI-H226 cells assessed as inhibition of cell growth incubated for 48 hrs by SRB assay; format: functional, cell-based
NCI-H23 = experiment: Cytotoxicity against human NCI-H23 cells assessed as inhibition of cell growth incubated for 48 hrs by SRB assay; format: functional, cell-based
NCI-H322M = experiment: Cytotoxicity against human NCI-H322M cells assessed as inhibition of cell growth incubated for 48 hrs by SRB assay; format: functional, cell-based
NCI-H460 = experiment: Cytotoxicity against human NCI-H460 cells assessed as inhibition of cell growth incubated for 48 hrs by SRB assay; format: functional, cell-based
NCI-H522 = experiment: Cytotoxicity against human NCI-H522 cells assessed as inhibition of cell growth incubated for 48 hrs by SRB assay; format: functional, cell-based
COLO 205 = experiment: Cytotoxicity against human COLO 205 cells assessed as inhibition of cell growth incubated for 48 hrs by SRB assay; format: functional, cell-based
HCC 2998 = experiment: Cytotoxicity against human HCC 2998 cells assessed as inhibition of cell growth incubated for 48 hrs by SRB assay; format: functional, cell-based
HCT-116 = experiment: Cytotoxicity against human HCT-116 cells assessed as inhibition of cell growth incubated for 48 hrs by SRB assay; format: functional, cell-based
HCT-15 = experiment: Cytotoxicity against human HCT-15 cells assessed as inhibition of cell growth incubated for 48 hrs by SRB assay; format: functional, cell-based
HT-29 = experiment: Cytotoxicity against human HT-29 cells assessed as inhibition of cell growth incubated for 48 hrs by SRB assay; format: functional, cell-based
KM12 = experiment: Cytotoxicity against human KM12 cells assessed as inhibition of cell growth incubated for 48 hrs by SRB assay; format: functional, cell-based
SW-620 = experiment: Cytotoxicity against human SW620 cells assessed as inhibition of cell growth incubated for 48 hrs by SRB assay; format: functional, cell-based
SF-268 = experiment: Cytotoxicity against human SF-268 cells assessed as inhibition of cell growth incubated for 48 hrs by SRB assay; format: functional, cell-based
SF-295 = experiment: Cytotoxicity against human SF-295 cells assessed as inhibition of cell growth incubated for 48 hrs by SRB assay; format: functional, cell-based
SF-539 = experiment: Cytotoxicity against human SF-539 cells assessed as inhibition of cell growth incubated for 48 hrs by SRB assay; format: functional, cell-based
SNB-19 = experiment: Cytotoxicity against human SNB-19 cells assessed as inhibition of cell growth incubated for 48 hrs by SRB assay; format: functional, cell-based
SNB-75 = experiment: Cytotoxicity against human SNB-75 cells assessed as inhibition of cell growth incubated for 48 hrs by SRB assay; format: functional, cell-based
U-251 = experiment: Cytotoxicity against human U-251 cells assessed as inhibition of cell growth incubated for 48 hrs by SRB assay; format: functional, cell-based
LOX IMVI = experiment: Cytotoxicity against human LOX IMVI cells assessed as inhibition of cell growth incubated for 48 hrs by SRB assay; format: functional, cell-based
Malme-3M = experiment: Cytotoxicity against human Malme-3M cells assessed as inhibition of cell growth incubated for 48 hrs by SRB assay; format: functional, cell-based
M14 = experiment: Cytotoxicity against human M14 cells assessed as inhibition of cell growth incubated for 48 hrs by SRB assay; format: functional, cell-based
MDA-MB-435 = experiment: Cytotoxicity against human MDA-MB-435 cells assessed as inhibition of cell growth incubated for 48 hrs by SRB assay; format: functional, cell-based
SK-MEL-2 = experiment: Cytotoxicity against human SK-MEL-2 cells assessed as inhibition of cell growth incubated for 48 hrs by SRB assay; format: functional, cell-based
SK-MEL-28 = experiment: Cytotoxicity against human SK-MEL-28 cells assessed as inhibition of cell growth incubated for 48 hrs by SRB assay; format: functional, cell-based
SK-MEL-5 = experiment: Cytotoxicity against human SK-MEL-5 cells assessed as inhibition of cell growth incubated for 48 hrs by SRB assay; format: functional, cell-based
UACC-257 = experiment: Cytotoxicity against human UACC-257 cells assessed as inhibition of cell growth incubated for 48 hrs by SRB assay; format: functional, cell-based
IGROV-1 = experiment: Cytotoxicity against human IGROV-1 cells assessed as inhibition of cell growth incubated for 48 hrs by SRB assay; format: functional, cell-based
OVCAR-3 = experiment: Cytotoxicity against human OVCAR-3 cells assessed as inhibition of cell growth incubated for 48 hrs by SRB assay; format: functional, cell-based
OVCAR-4 = experiment: Cytotoxicity against human OVCAR-4 cells assessed as inhibition of cell growth incubated for 48 hrs by SRB assay; format: functional, cell-based
OVCAR-5 = experiment: Cytotoxicity against human OVCAR-5 cells assessed as inhibition of cell growth incubated for 48 hrs by SRB assay; format: functional, cell-based
OVCAR-8 = experiment: Cytotoxicity against human OVCAR-8 cells assessed as inhibition of cell growth incubated for 48 hrs by SRB assay; format: functional, cell-based
NCI/ADR-RES = experiment: Cytotoxicity against human NCI/ADR-RES cells assessed as inhibition of cell growth incubated for 48 hrs by SRB assay; format: functional, cell-based
SK-OV-3 = experiment: Cytotoxicity against human SK-OV-3 cells assessed as inhibition of cell growth incubated for 48 hrs by SRB assay; format: functional, cell-based
786-0 = experiment: Cytotoxicity against human 786-0 cells assessed as inhibition of cell growth incubated for 48 hrs by SRB assay; format: functional, cell-based
A498 = experiment: Cytotoxicity against human A498 cells assessed as inhibition of cell growth incubated for 48 hrs by SRB assay; format: functional, cell-based
ACHN = experiment: Cytotoxicity against human ACHN cells assessed as inhibition of cell growth incubated for 48 hrs by SRB assay; format: functional, cell-based
CAKI-1 = experiment: Cytotoxicity against human CAKI-1 cells assessed as inhibition of cell growth incubated for 48 hrs by SRB assay; format: functional, cell-based
RXF 393 = experiment: Cytotoxicity against human RXF 393 cells assessed as inhibition of cell growth incubated for 48 hrs by SRB assay; format: functional, cell-based
SN12C = experiment: Cytotoxicity against human SN12C cells assessed as inhibition of cell growth incubated for 48 hrs by SRB assay; format: functional, cell-based
TK-10 = experiment: Cytotoxicity against human TK-10 cells assessed as inhibition of cell growth incubated for 48 hrs by SRB assay; format: functional, cell-based
PC-3 = experiment: Cytotoxicity against human PC-3 cells assessed as inhibition of cell growth incubated for 48 hrs by SRB assay; format: functional, cell-based
DU-145 = experiment: Cytotoxicity against human DU-145 cells assessed as inhibition of cell growth incubated for 48 hrs by SRB assay; format: functional, cell-based
MCF7 = experiment: Cytotoxicity against human MCF7 cells assessed as inhibition of cell growth incubated for 48 hrs by SRB assay; format: functional, cell-based
MDA-MB-231 = experiment: Cytotoxicity against human MDA-MB-231 cells assessed as inhibition of cell growth incubated for 48 hrs by SRB assay; format: functional, cell-based
Hs578Bst = experiment: Cytotoxicity against human Hs578Bst cells assessed as inhibition of cell growth incubated for 48 hrs by SRB assay; format: functional, cell-based
BT-549 = experiment: Cytotoxicity against human BT-549 cells assessed as inhibition of cell growth incubated for 48 hrs by SRB assay; format: functional, cell-based
T47D = experiment: Cytotoxicity against human T47D cells assessed as inhibition of cell growth incubated for 48 hrs by SRB assay; format: functional, cell-based
MDA-MB-468 = experiment: Cytotoxicity against human MDA-MB-468 cells assessed as inhibition of cell growth incubated for 48 hrs by SRB assay; format: functional, cell-based
HOP-62 = experiment: Cytotoxicity against human HOP-62 cells assessed as inhibition of cell growth incubated for 48 hrs by SRB assay; format: functional, cell-based

Cn1cnc2c1c(=O)n(CC(=O)Nc1ccc(S(=O)(=O)Nc3ncccn3)cc1)c(=O)n2C
IC50 (SARS-CoV-2): 8.86 µM | CC50 at 72 h [1]: 1140 µM | selectivity ratio [2]: 129 | IC50 [3]: 8.06 µM | IC50 [4]: 3.22 µM | growth inhibition (GI) (UO-31): 17.55% | Activity (CCRF-CEM): inactive | Activity (HL-60(TB)): inactive | Activity (K562): inactive | Activity (MOLT-4): inactive | Activity (RPMI-8226): inactive | Activity (SR): inactive | Activity (A549): inactive | Activity (EKVX): inactive | Activity (HOP-92): inactive | Activity (NCI-H226): inactive | Activity (NCI-H23): inactive | Activity (NCI-H322M): inactive | Activity (NCI-H460): inactive | Activity (NCI-H522): inactive | Activity (COLO 205): inactive | Activity (HCC 2998): inactive | Activity (HCT-116): inactive | Activity (HCT-15): inactive | Activity (HT-29): inactive | Activity (KM12): inactive | Activity (SW-620): inactive | Activity (SF-268): inactive | Activity (SF-295): inactive | Activity (SF-539): inactive | Activity (SNB-19): inactive | Activity (SNB-75): inactive | Activity (U-251): inactive | Activity (LOX IMVI): inactive | Activity (Malme-3M): inactive | Activity (M14): inactive | Activity (MDA-MB-435): inactive | Activity (SK-MEL-2): inactive | Activity (SK-MEL-28): inactive | Activity (SK-MEL-5): inactive | Activity (UACC-257): inactive | Activity (IGROV-1): inactive | Activity (OVCAR-3): inactive | Activity (OVCAR-4): inactive | Activity (OVCAR-5): inactive | Activity (OVCAR-8): inactive | Activity (NCI/ADR-RES): inactive | Activity (SK-OV-3): inactive | Activity (786-0): inactive | Activity (A498): inactive | Activity (ACHN): inactive | Activity (CAKI-1): inactive | Activity (RXF 393): inactive | Activity (SN12C): inactive | Activity (TK-10): inactive | Activity (PC-3): inactive | Activity (DU-145): inactive | Activity (MCF7): inactive | Activity (MDA-MB-231): inactive | Activity (Hs578Bst): inactive | Activity (BT-549): inactive | Activity (T47D): inactive | Activity (MDA-MB-468): inactive | Activity (HOP-62): inactive
